Data published in ChEMBL document CHEMBL5303573, “Mapping human microbiome drug metabolism by gut bacteria and their genes” (Nature, 2019).

How the values were obtained:
[1] = The drug is tested on Bacteroides finegoldii strain: DSM17565 for biotransformation. The drug concentrations were measured before and after a 12-h incubation by liquid-chromatography-coupled mass spectrometry (LC–MS); details: 2 µM
[2] = The drug is tested on Bacteroides uniformis strain: ATCC8492 for biotransformation. The drug concentrations were measured before and after a 12-h incubation by liquid-chromatography-coupled mass spectrometry (LC–MS); details: 2 µM
[3] = The drug is tested on Anaerococcus hydrogenalis strain: DSM7454 for biotransformation. The drug concentrations were measured before and after a 12-h incubation by liquid-chromatography-coupled mass spectrometry (LC–MS); details: 2 µM
[4] = The drug is tested on Anaerotruncus colihominis strain: DSM17241 for biotransformation. The drug concentrations were measured before and after a 12-h incubation by liquid-chromatography-coupled mass spectrometry (LC–MS); details: 2 µM
[5] = The drug is tested on Clostridium hathewayi strain: DSM13479 for biotransformation. The drug concentrations were measured before and after a 12-h incubation by liquid-chromatography-coupled mass spectrometry (LC–MS); details: hungatella hathewayi, 2 µM
[6] = The drug is tested on Clostridium sp. strain: fecal isolate for biotransformation. The drug concentrations were measured before and after a 12-h incubation by liquid-chromatography-coupled mass spectrometry (LC–MS); details: 2 µM
[7] = The drug is tested on Clostridium spiroforme strain: DSM1552 for biotransformation. The drug concentrations were measured before and after a 12-h incubation by liquid-chromatography-coupled mass spectrometry (LC–MS); details: thomasclavelia spiroformis, 2 µM
[8] = molecular target: T1, Acetyl esterase (Acetylxylosidase) (Bacteroides thetaiotaomicron, UniProt Q8ABF8); assay: (§1) The drug is tested on Bacteroides thetaiotaomicron strain: VPI-5482 for biotransformation. The drug concentrations were measured before and after a 12-h incubation by liquid-chromatography-coupled mass spectrometry (LC–MS); format: ADME; set-up: dose 2 uM; details: 2 µM
T1 sequence (Q8ABF8 whole entry): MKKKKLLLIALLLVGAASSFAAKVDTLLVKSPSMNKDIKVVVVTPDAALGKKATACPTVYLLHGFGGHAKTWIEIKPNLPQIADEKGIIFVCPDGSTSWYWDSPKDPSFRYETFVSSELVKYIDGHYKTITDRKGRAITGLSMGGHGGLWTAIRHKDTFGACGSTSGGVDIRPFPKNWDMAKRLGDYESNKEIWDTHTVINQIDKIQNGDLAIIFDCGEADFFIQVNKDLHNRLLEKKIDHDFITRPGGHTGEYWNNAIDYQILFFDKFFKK

General stress protein = General stress protein (Bacteroides thetaiotaomicron, UniProt Q8A7U5); assay: as §1; format: ADME; set-up: dose 2 uM; details: 2 µM
Sequence of General stress protein (Q8A7U5 1-138, stated change not applied): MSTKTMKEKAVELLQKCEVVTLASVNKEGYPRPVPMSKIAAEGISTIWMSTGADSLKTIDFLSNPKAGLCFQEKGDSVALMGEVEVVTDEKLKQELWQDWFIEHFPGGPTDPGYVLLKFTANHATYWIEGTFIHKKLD

Diguanylate cyclase = molecular target: T2, Diguanylate cyclase (Collinsella aerofaciens, UniProt A4EB91); assay: (§2) The drug is tested on Collinsella aerofaciens strain: ATCC25986 for biotransformation. The drug concentrations were measured before and after a 12-h incubation by liquid-chromatography-coupled mass spectrometry (LC–MS); format: ADME; set-up: dose 2 uM; details: 2 µM
T2 sequence (A4EB91 whole entry): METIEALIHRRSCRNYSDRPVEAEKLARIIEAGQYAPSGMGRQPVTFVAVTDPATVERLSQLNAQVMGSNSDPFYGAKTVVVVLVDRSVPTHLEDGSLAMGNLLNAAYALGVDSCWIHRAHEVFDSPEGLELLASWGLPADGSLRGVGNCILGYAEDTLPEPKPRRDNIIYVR

Flavodoxin = molecular target: T3, Flavodoxin (Collinsella aerofaciens, UniProt A4ED08); assay: as §2; format: ADME; set-up: dose 2 uM; details: 2 µM
T3 sequence (A4ED08 whole entry): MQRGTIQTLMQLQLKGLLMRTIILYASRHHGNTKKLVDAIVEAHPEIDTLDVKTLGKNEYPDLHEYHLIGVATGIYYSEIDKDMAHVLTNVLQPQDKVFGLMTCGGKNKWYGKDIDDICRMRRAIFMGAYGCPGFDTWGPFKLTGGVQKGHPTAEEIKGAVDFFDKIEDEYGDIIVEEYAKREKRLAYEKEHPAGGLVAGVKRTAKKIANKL

GDSL-like protein = molecular target: T4, GDSL-like protein (Collinsella aerofaciens, UniProt A4E7D0); assay: as §2; format: ADME; set-up: dose 2 uM; details: 2 µM
T4 sequence (A4E7D0 whole entry): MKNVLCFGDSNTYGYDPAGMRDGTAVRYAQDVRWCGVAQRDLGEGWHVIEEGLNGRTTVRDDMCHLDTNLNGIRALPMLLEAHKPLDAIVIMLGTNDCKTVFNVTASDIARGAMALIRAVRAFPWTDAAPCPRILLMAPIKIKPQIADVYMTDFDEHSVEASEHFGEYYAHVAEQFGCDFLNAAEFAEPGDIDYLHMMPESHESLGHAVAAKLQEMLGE

[9] = molecular target: T5, Pyridine nucleotide-disulfide oxidoreductase (Collinsella aerofaciens, UniProt A4EBM5); assay: as §2; format: ADME; set-up: dose 2 uM; details: 2 µM
T5 sequence (A4EBM5 whole entry): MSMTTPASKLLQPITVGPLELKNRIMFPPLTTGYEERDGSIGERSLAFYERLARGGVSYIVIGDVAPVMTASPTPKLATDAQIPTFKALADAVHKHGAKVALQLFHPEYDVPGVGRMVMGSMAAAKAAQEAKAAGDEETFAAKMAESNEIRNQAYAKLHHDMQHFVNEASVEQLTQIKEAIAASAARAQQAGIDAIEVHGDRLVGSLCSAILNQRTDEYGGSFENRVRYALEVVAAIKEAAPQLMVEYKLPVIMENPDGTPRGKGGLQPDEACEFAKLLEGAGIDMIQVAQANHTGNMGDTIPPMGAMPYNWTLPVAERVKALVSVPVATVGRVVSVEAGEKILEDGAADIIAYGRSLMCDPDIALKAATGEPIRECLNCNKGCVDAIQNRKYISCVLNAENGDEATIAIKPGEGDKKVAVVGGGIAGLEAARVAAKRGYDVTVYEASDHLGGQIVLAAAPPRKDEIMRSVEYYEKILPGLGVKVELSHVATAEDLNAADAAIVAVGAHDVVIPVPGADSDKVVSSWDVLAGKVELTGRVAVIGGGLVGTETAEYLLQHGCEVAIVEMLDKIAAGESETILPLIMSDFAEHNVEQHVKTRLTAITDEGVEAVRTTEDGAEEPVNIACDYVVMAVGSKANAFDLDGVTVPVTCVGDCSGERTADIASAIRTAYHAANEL

[10] = bacteroides fragilis, 12 h, 2 µM
Description: The drug is tested on Bacteroides fragilis strain: DS-208 for biotransformation. The drug concentrations were measured before and after a 12-h incubation by liquid-chromatography-coupled mass spectrometry (LC–MS)

[11] = anaerostipes sp., 12 h, 2 µM
Description: The drug is tested on Anaerostipes sp. strain: fecal isolate for biotransformation. The drug concentrations were measured before and after a 12-h incubation by liquid-chromatography-coupled mass spectrometry (LC–MS)

| Structure (SMILES) | Bacterial Biotransformation [1] | Bacterial Biotransformation [2] | Bacterial Biotransformation [3] | Bacterial Biotransformation [4] | Bacterial Biotransformation [6] | Bacterial Biotransformation [8] | Bacterial Biotransformation (General stress protein) | Bacterial Biotransformation (Diguanylate cyclase) | Bacterial Biotransformation (Flavodoxin) | Bacterial Biotransformation (GDSL-like protein) | Bacterial Biotransformation [9] | Bacterial Biotransformation [10] | Bacterial Biotransformation [11] | Bacterial Biotransformation [5] | Bacterial Biotransformation [7] |
| --- | --- | --- | --- | --- | --- | --- | --- | --- | --- | --- | --- | --- | --- | --- | --- |
| C[C@@H]1CC[C@H]2[C@@H](C)C(=O)O[C@@H]3O[C@@]4(C)CC[C@@H]1[C@]32OO4 [ARTEMISININ] | Compound metabolized | Compound metabolized | Compound metabolized | Compound metabolized | Compound metabolized | Compound NOT metabolized | Compound metabolized | Compound NOT metabolized | Compound NOT metabolized | Compound NOT metabolized | Compound NOT metabolized | Compound metabolized | Compound metabolized | Compound metabolized | Compound metabolized |
| CCN(CC)C(=O)/C(C#N)=C/c1cc(O)c(O)c([N+](=O)[O-])c1 [ENTACAPONE] | Compound metabolized | Compound metabolized | Compound metabolized | Compound metabolized | Compound metabolized | Compound NOT metabolized | Compound NOT metabolized | Compound metabolized | Compound NOT metabolized | Compound NOT metabolized | Compound NOT metabolized | Compound metabolized | Compound metabolized | – | – |
| CCOC(=O)C1=C(C)NC(C)=C(C(=O)OC)C1c1cccc([N+](=O)[O-])c1 (configuration not stated) [NITRENDIPINE] | Compound metabolized | Compound metabolized | Compound metabolized | Compound metabolized | Compound metabolized | Compound NOT metabolized | Compound NOT metabolized | Compound metabolized | Compound NOT metabolized | Compound NOT metabolized | Compound NOT metabolized | Compound metabolized | Compound metabolized | – | – |

Continued, in another order:

| Bacterial Biotransformation [1] | Bacterial Biotransformation [2] | Bacterial Biotransformation [3] | Bacterial Biotransformation [4] | Bacterial Biotransformation [6] | Bacterial Biotransformation [8] | Bacterial Biotransformation (General stress protein) | Bacterial Biotransformation (Diguanylate cyclase) | Bacterial Biotransformation (Flavodoxin) | Bacterial Biotransformation (GDSL-like protein) | Bacterial Biotransformation [9] | Bacterial Biotransformation [10] | Bacterial Biotransformation [11] | Structure (SMILES) | Bacterial Biotransformation [5] | Bacterial Biotransformation [7] |
| --- | --- | --- | --- | --- | --- | --- | --- | --- | --- | --- | --- | --- | --- | --- | --- |
| Compound metabolized | Compound metabolized | Compound metabolized | Compound metabolized | Compound metabolized | Compound NOT metabolized | Compound NOT metabolized | Compound NOT metabolized | Compound NOT metabolized | Compound NOT metabolized | Compound NOT metabolized | Compound metabolized | Compound metabolized | COc1ccnc(C[S+]([O-])c2nc3ccc(OC(F)F)cc3[nH]2)c1OC (configuration not stated) [PANTOPRAZOLE] | – | – |
| Compound metabolized | Compound metabolized | Compound metabolized | Compound metabolized | Compound metabolized | Compound NOT metabolized | Compound metabolized | Compound NOT metabolized | Compound metabolized | Compound NOT metabolized | Compound NOT metabolized | Compound metabolized | Compound metabolized | Nc1ccc(/N=N/c2ccccc2)c(N)n1 [PHENAZOPYRIDINE] | – | – |
